Experimental data published in patent publication US20170122958A1, “Enzymes Functional Probes” (University of Dundee, priority 2013, published 2017).
“And” between values parts separate entries of the source, which are not always exact repeats. Identical values can stand only once.

Key:
Type in all cases: binding
[1] = molecular target: Brd2(2)*(Leu383-Ala) (Homo sapiens, UniProt P25440, L383A); experiment: DSF thermal shift; parameters: Plasmids of the eight single BET bromodomain constructs Brd2(1), Brd2(2), Brd3(1), Brd3(2); His6 (N); made in house; host or cells: E. coli BL21(DE3); details: mutant
Chain of Brd2(2)*(Leu383-Ala) (P25440 344-453 L383A limits assumed): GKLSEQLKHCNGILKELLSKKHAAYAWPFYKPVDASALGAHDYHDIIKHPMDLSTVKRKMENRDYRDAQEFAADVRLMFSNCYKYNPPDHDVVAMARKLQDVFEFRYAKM

[2] = molecular target: Brd2(1)*(Leu110-Ala) (Homo sapiens, UniProt P25440, L110A); experiment: DSF thermal shift; parameters: Plasmids of the eight single BET bromodomain constructs Brd2(1), Brd2(2), Brd3(1), Brd3(2); His6 (N); made in house; host or cells: E. coli BL21(DE3); details: mutant
Chain of Brd2(1)*(Leu110-Ala) (P25440 74-180 L110A limits assumed): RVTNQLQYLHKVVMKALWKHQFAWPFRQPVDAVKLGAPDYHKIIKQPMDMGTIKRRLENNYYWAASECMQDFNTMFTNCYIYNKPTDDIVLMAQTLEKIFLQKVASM

[3] = molecular target: T1, Brd2(1) (Homo sapiens, UniProt P25440); experiment: ITC reverse titration of protein into compound; details: for ΔH Brd2(1): ITC 25° C.
T1 construct: Plasmids of the eight single BET bromodomain constructs Brd2(1), Brd2(2), Brd3(1), Brd3(2); His6 (N); made in house; host or cells: E. coli BL21(DE3)
T1 sequence (P25440 74-180 limits assumed): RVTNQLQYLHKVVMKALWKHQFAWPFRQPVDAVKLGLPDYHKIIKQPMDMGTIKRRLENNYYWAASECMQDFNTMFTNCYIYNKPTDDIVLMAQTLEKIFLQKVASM
Procedure: (§1) ITC experiments were carried out on a ITC200 instrument from MicroCal™ Experiments were conducted at 3 different temperatures 15° C., 25° C. and 30° C., while stirring at 1000 rpm. Buffers of proteins, peptide and compounds were matched to 20 mM HEPES pH 7.5 at 25° C. and 100 mM NaCl. Frozen protein was buffer exchanged as described for the DSF experiments. Each titration comprised 1 initial injection of 0.4 μl lasting 0.8 s, followed by 19 injections of 2 μl lasting 4 s each at 2 min intervals. The initial injection was discarded during data analysis. Standard and reverse titrations were conducted depending on the binding partners.
(§2) Reverse titrations were conducted to test the binding of the known ligands and the novel chemical probes to the wild types and the mutants. Experiments were carried out either at 25° C. or 30° C. […] In cases where the compound was solubilized in dimethyl sulfoxide, DMSO concentration was adjusted to 1% both in the syringe and in the cell.
(§3) All the data was fitted to a single binding site model using the Microcal LLC ITC200 Origin software provided by the manufacturer to yield enthalpies of binding (ΔH) and binding constants (Kas). Further thermodynamic parameters were calculated from these values (changes in entropy ΔS, changes in free energy AG and dissociation constants (Kds)).

[4] = molecular target: T2, Brd2(2) (Homo sapiens, UniProt P25440); experiment: ITC reverse titration of protein into compound; details: ITC 25° C.; for Kd: Kd Brd2(2)
T2 construct: Plasmids of the eight single BET bromodomain constructs Brd2(1), Brd2(2), Brd3(1), Brd3(2); His6 (N); made in house; host or cells: E. coli BL21(DE3)
T2 sequence (P25440 344-453 limits assumed): as the sequence (P25440 344-453 L383A limits assumed) above, with A40L counted along it
Procedure: as §1, §2, §3

[5] = molecular target: T3, Brd3(1) (Homo sapiens, UniProt Q15059); experiment: DSF thermal shift; details: wild type
T3 construct: Plasmids of the eight single BET bromodomain constructs Brd2(1), Brd2(2), Brd3(1), Brd3(2); His6 (N); made in house; host or cells: E. coli BL21(DE3)
T3 sequence (Q15059 34-140 limits assumed): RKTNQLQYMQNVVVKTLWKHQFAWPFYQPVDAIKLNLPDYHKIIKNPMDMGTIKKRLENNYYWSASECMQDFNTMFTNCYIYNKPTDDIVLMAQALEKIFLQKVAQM

[6] = molecular target: T4, Brdt(2) (Homo sapiens, UniProt Q58F21); experiment: DSF thermal shift; details: wild type
T4 construct: Plasmids of the eight single BET bromodomain constructs Brd2(1), Brd2(2), Brd3(1), Brd3(2), Brd4(1), Brd4(2), Brdt(1) and Brdt(2); His6 (N); made in house; host or cells: E. coli BL21(DE3)

[7] = molecular target: T1, Brd2(1); experiment: DSF thermal shift; details: wild type
[8] = molecular target: T5, Brdt(1) (Homo sapiens, UniProt Q58F21); experiment: DSF thermal shift; details: wild type
T5 construct: Plasmids of the eight single BET bromodomain constructs Brd2(1), Brd2(2), Brd3(1), Brd3(2), Brd4(1), Brd4(2), Brdt(1) and Brdt(2); His6 (N); made in house; host or cells: E. coli BL21(DE3)

[9] = molecular target: T6, Brd3(2) (Homo sapiens, UniProt Q15059); experiment: DSF thermal shift; details: wild type
T6 construct: Plasmids of the eight single BET bromodomain constructs Brd2(1), Brd2(2), Brd3(1), Brd3(2), Brd4(1), Brd4(2), Brdt(1) and Brdt(2); His6 (N); made in house; host or cells: E. coli BL21(DE3)
T6 sequence (Q15059 306-415 limits assumed): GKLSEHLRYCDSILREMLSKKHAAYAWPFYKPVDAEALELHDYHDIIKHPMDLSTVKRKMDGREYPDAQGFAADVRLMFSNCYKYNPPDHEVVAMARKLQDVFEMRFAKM

[10] = molecular target: T7, brdt(2)L306A (Homo sapiens, UniProt Q58F21, L306A); experiment: DSF thermal shift; details: mutant
T7 construct: Plasmids of the eight single BET bromodomain constructs Brd2(1), Brd2(2), Brd3(1), Brd3(2), Brd4(1), Brd4(2), Brdt(1) and Brdt(2); His6 (N); made in house; host or cells: E. coli BL21(DE3)

[11] = molecular target: T2, Brd2(2); experiment: DSF thermal shift; details: wild type
[12] = molecular target: T8, brd3(2)L344A (Homo sapiens, UniProt Q15059, L345A); experiment: DSF thermal shift; details: mutant
T8 construct: Plasmids of the eight single BET bromodomain constructs Brd2(1), Brd2(2), Brd3(1), Brd3(2), Brd4(1), Brd4(2), Brdt(1) and Brdt(2); His6 (N); made in house; host or cells: E. coli BL21(DE3)
T8 sequence (Q15059 306-415 L345A): as the sequence (Q15059 306-415 limits assumed) above, with L40A counted along it

[13] = molecular target: T9, Brd3(1)* (L070A) (Homo sapiens, UniProt Q15059, L70A); experiment: DSF thermal shift; details: mutant
T9 construct: Plasmids of the eight single BET bromodomain constructs Brd2(1), Brd2(2), Brd3(1), Brd3(2); His6 (N); made in house; host or cells: E. coli BL21(DE3)
T9 sequence (Q15059 34-140 L70A limits assumed): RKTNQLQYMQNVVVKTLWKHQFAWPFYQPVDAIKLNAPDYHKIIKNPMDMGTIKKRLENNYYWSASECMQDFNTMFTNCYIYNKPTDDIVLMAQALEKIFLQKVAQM

Row | Compound | ΔTm Brd2(2)*(Leu383-Ala) [1] [K] | ΔTm Brd2(1)*(Leu110-Ala) [2] [K] | Kd [3] [µM] | ΔH Brd2(1) [3] [kcal/mol] | ΔH Brd2(2) [4] [kcal/mol] | Kd [4] | ΔTm Brd3(1) [5] [K] | ΔTm Brdt(2) [6] [K] | ΔTm Brd2(1) [7] [K] | ΔTm Brdt(1) [8] [K] | ΔTm Brd3(2) [9] [K] | ΔTm Brdt(2)* (L306A) [10] [K] | ΔTm Brd2(2) [11] [K] | ΔTm Brd3(2)* (L344A) [12] [K] | ΔTm Brd3(1)* (L070A) [13] [K] | also measured
1 | COC(=O)[C@H](C)[C@@H]1N=C(c2ccc(Cl)cc2)c2cc(OC)ccc2-n2c(C)nnc21 (racemic) [Compound 7, (+−)-methyl (R)-2-((S)-6-(4-chlorophenyl)-8-methoxy-1-methyl-4H-benzo[f][1,2,4]triazolo[4,3-a][1,4]diazepin-4-yl)propanoate] | 9.3 ± 0.2 | 7.9 ± 0.2 | 1.47 | -8.653 ± 0.1357 | -5.36 ± 0.117 | 0.3 µM and 0.298 µM | 5.9 ± 0.2 | 3.7 ± 0.3 | 3.2 ± 0.2 | 5.3 ± 0.3 | 6.7 ± 1.0 | 7.9 ± 0.2 | 5.6 ± 0.1 | 15.6 ± 0.4 | 10.8 ± 0.3 | Thermal stabilisation brd2(2)L383A [1]: 9.3 ± 0.2 °C; Thermal stabilisation brd2(2)L383A ([1]; listed as compound 7): 9.3 °C; Thermal stabilisation brd2(1)L110A [2]: 7.9 ± 0.2 °C; Thermal stabilisation brd2(1)L110A ([2]; listed as compound 7): 7.9 °C; Thermal stabilisation brd2(1) [7]: 3.2 ± 0.2 °C; Thermal stabilisation brd2(1) ([7]; listed as compound 7): 3.2 °C; Thermal stabilisation brd2(2) [11]: 5.6 ± 0.1 °C; Thermal stabilisation brd2(2) ([11]; listed as compound 7): 5.6 °C
2 | CC[C@@H](C(=O)OC)[C@@H]1N=C(c2ccc(Cl)cc2)c2cc(OC)ccc2-n2c(C)nnc21 (racemic) [Compound 11, (+−)-methyl (R)-2-((S)-6-(4-chlorophenyl)-8-methoxy-1-methyl-4H-benzo[f][1,2,4]triazolo[4,3-a][1,4]diazepin-4-yl)butanoate] | 8.1 ± 0.2 | 7.6 ± 0.2 | 1.78 ± 2 | -2.957 ± 0.2144 | -3.601 ± 0.0852 | 2.2 ± 0.4 µM | 2.2 ± 0.1 | 1.3 ± 0.3 | 1.2 ± 0.2 | 1.5 ± 0.4 | 2.6 ± 0.7 | 6.7 ± 0.4 | 1.6 ± 0.1 | 13.4 ± 0.6 | 10.4 ± 0.3 | –
